Test results reported in ChEMBL document CHEMBL3739293, “Synthesis of unusual isoxazoline containingand-dipeptides as potential glutamate receptor ligands” (Medchemcomm, 2015).

Key:
[1] = Displacement of [3H]KA from KA receptor in Sprague-Dawley rat brain synaptic membrane
Glutamate NMDA receptor = test: Displacement of [3H]CGP39653 from NMDA receptor in Sprague-Dawley rat brain synaptic membrane
[2] = Displacement of [3H]AMPA from AMPA receptor in Sprague-Dawley rat brain synaptic membrane

SMILES	IC50 [1] [µM]	pIC50 [1]	Ki (Glutamate NMDA receptor) [µM]	pKi (Glutamate NMDA receptor)	IC50 [2] [µM]	pIC50 [2]
N[C@H](CCC(=O)N1C[C@@H]2C(C(=O)O)=NO[C@@H]2C1)C(=O)O	> 100	–	58	4.24	> 100	–
N[C@H](CCC(=O)N1C[C@@H]2C(O)=NO[C@@H]2C1)C(=O)O	> 100	–	> 100	–	> 100	–
N[C@H](CCC(=O)N1C[C@@H]2ON=C(C(=O)O)[C@@H]2C1)C(=O)O (single isomer, unassigned)	56	4.25	28	4.56	67	4.18
N[C@H](CCC(=O)N1C[C@@H]2ON=C(O)[C@@H]2C1)C(=O)O (single isomer, unassigned)	> 100	–	> 100	–	> 100	–
N[C@@H](CCC(=O)N1C[C@@H]2C(O)=NO[C@@H]2C1)C(=O)O (single isomer, unassigned)	59	4.23	41	4.41	48	4.36

Continued by falling IC50 [1], values first:

IC50 [1] [µM]	pIC50 [1]	Ki (Glutamate NMDA receptor) [µM]	pKi (Glutamate NMDA receptor)	IC50 [2] [µM]	pIC50 [2]	SMILES
66	4.2	24	4.64	46	4.34	N[C@@H](CCC(=O)N1C[C@@H]2ON=C(C(=O)O)[C@@H]2C1)C(=O)O
40	4.39	21	4.68	34	4.48	N[C@@H](CCC(=O)N1C[C@@H]2C(C(=O)O)=NO[C@@H]2C1)C(=O)O (single isomer, unassigned)
37	4.43	25	4.63	43	4.37	N[C@@H](CCC(=O)N1C[C@@H]2ON=C(O)[C@@H]2C1)C(=O)O
